The test system of this experiment is serum cholesterol and serum triglyceride. Kind of experiment: Hypolipidemic activity of 2,3-dihydrophthalazine-1,4-diones in normal male mice (Example 11, Table II). Particulars: Mus musculus, ip. The class given is in vivo, CF1 male mice. How it is done:
Hypolipidemic Activity of 2,3-Dihydrophthalazine-1,4-Diones in Normal Male Mice
Each of the prepared compounds was administered intraperitoneally, in a dosage of 20 milligrams per kilogram of body weight per day, to a group of six CF1 male mice, each weighing approximately 25 grams, for 16 days. On Days 9 and 16 blood was obtained from each of the tested mice by tail vein bleeding. The blood serum so obtained was separated by centrifugation for three minutes. […] Serum triglyceride levels were obtained on Day 16 by use of the Bio-Dynamics/bm Triglyceride Kit.
In addition to the above-described treated mice, an untreated control group of six mice were similarly tested on Days 9 and 16 to determine their serum cholesterol and serum triglyceride blood levels.

Where [1] appears, read: 216 h, CF1 male mice, 20 mg/kg/day intraperitoneally, Day 9, read-out: Serum Cholesterol Day 9, percent control ± standard deviation.
Setting [2] is: 384 h, CF1 male mice, 20 mg/kg/day intraperitoneally, Day 16, read-out: Serum Cholesterol Day 16, percent control ± standard deviation.
The mark [3] stands for this setting: 384 h, CF1 male mice, 20 mg/kg/day intraperitoneally, Day 16, read-out: Serum Triglyceride Day 16, percent control ± standard deviation.

Like-named read-outs stand apart in the source and are kept apart here.

On to `CCCOc1nn(CCC)c(=O)c2ccccc12` [Compound 7], for which the response vs control in vivo at 20 mg/kg/day under setting [1] was 68 ± 3%, the response vs control in vivo at 20 mg/kg/day under setting [2] is 69 ± 5% and the response vs control in vivo at 20 mg/kg/day under setting [3] is 69 ± 2%.

With `CCn1[nH]c(=O)c2ccccc2c1=O` [Compound 4, 2-Ethyl-2,3-Dihydrophthalazine-1,4-Dione], the response vs control in vivo at 20 mg/kg/day is 71 ± 7% under setting [1], 58 ± 5% under setting [2] and 59 ± 4% under setting [3].

Consider `Cc1ccc2c(=O)[nH][nH]c(=O)c2c1` [Compound 15, 6-methyl-2,3-dihydrophthalazine-1,4-dione], for which the response vs control in vivo at 20 mg/kg/day under setting [1] was found to be 66 ± 8%, the response vs control in vivo at 20 mg/kg/day under setting [2] is 55 ± 4% and the response vs control in vivo at 20 mg/kg/day under setting [3] worked out at 54 ± 4%.

Take `CCOC(=O)Cn1[nH]c(=O)c2ccccc2c1=O` [Compound 19, 2-(1'-Carbethoxymethyl)-2,3-Dihydrophthalazine-1,4-Dione]: the response vs control in vivo at 20 mg/kg/day under setting [1] is 78 ± 6%, the response vs control in vivo at 20 mg/kg/day under setting [2] is 69 ± 5% and the response vs control in vivo at 20 mg/kg/day under setting [3] is 73 ± 4%.

Take `COc1cccc2c(=O)[nH]nc(O)c12` [Compound 16]: the response vs control in vivo at 20 mg/kg/day under setting [1] worked out at 82 ± 5%, the response vs control in vivo at 20 mg/kg/day under setting [2] was 78 ± 3% and the response vs control in vivo at 20 mg/kg/day under setting [3] was found to be 81 ± 4%.

On to `O=c1[nH]n(-c2ccccc2)c(=O)c2ccccc12` [Compound 21, 2-Phenyl-2,3-Dihydrophthalazine-1,4-Dione], for which the response vs control in vivo at 20 mg/kg/day was found to be 59 ± 5% (216 h, read-out: Serum Cholesterol Day 9, percent control ± standard deviation); 58 ± 4% (384 h, read-out: Serum Cholesterol Day 16, percent control ± standard deviation); 65 ± 3% (384 h, read-out: Serum Triglyceride Day 16, percent control ± standard deviation).

On to `CCCCOc1nn(CCCC)c(=O)c2ccccc12` [Compound 9], for which the response vs control in vivo at 20 mg/kg/day was 65 ± 4% under setting [1], 61 ± 3% under setting [2] and 66 ± 3% under setting [3].

Regarding `Cc1cccc2c(=O)[nH]nc(O)c12` [Compound 14], the response vs control in vivo at 20 mg/kg/day is, setting by setting: under setting [1], 80 ± 4%; under setting [2], 75 ± 3%; under setting [3], 73 ± 3%.

As to `CCCCCn1nc(O)c2ccccc2c1=O` [Compound 10], the response vs control in vivo at 20 mg/kg/day under setting [1] came to 74 ± 3%, the response vs control in vivo at 20 mg/kg/day under setting [2] came to 71 ± 5% and the response vs control in vivo at 20 mg/kg/day under setting [3] stood at 55 ± 4%.

On to `O=C(O)CCn1[nH]c(=O)c2ccccc2c1=O` [Compound 18, 2-(2'-Carboxyethyl)-2,3-Dihydrophthalazine-1,4-Dione], for which the response vs control in vivo at 20 mg/kg/day worked out at 54 ± 6% under setting [1], 34 ± 3% under setting [2] and 60 ± 4% under setting [3].

On to `COc1nn(C)c(=O)c2ccccc12` [Compound 3, 2-Methyl-4-Methoxyphthalazine-1(2H)-One], for which the response vs control in vivo at 20 mg/kg/day runs as follows: under setting [1], 84 ± 6%; under setting [2], 81 ± 5%; under setting [3], 64 ± 5%.

Turning to `CCCn1[nH]c(=O)c2ccccc2c1=O` [Compound 6, 2-n-propyl-2,3-dihydrophthalazine-1,4-dione], the response vs control in vivo at 20 mg/kg/day worked out at 77 ± 6% under setting [1], 68 ± 5% under setting [2] and 62 ± 2% under setting [3].

`Cn1nc(O)c2ccccc2c1=O` [Compound 2]: the response vs control in vivo at 20 mg/kg/day by setting is: under setting [1], 72 ± 5%; under setting [2], 77 ± 3%; under setting [3], 66 ± 4%.

Turning to `CCOc1nn(CC)c(=O)c2ccccc12` [Compound 5], the response vs control in vivo at 20 mg/kg/day is, setting by setting: under setting [1], 77 ± 5%; under setting [2], 76 ± 4%; under setting [3], 57 ± 3%.

Regarding `Cc1ccc(-n2nc(O)c3ccccc3c2=O)cc1` [Compound 27], the response vs control in vivo at 20 mg/kg/day was 89 ± 5% under setting [1], 73 ± 6% under setting [2] and 57 ± 2% under setting [3].

As to `O=c1c2ccccc2c(O)nn1-c1cccc(Cl)c1` [Compound 23], the response vs control in vivo at 20 mg/kg/day is 73 ± 4% under setting [1], 62 ± 3% under setting [2] and 69 ± 5% under setting [3].

Turning to `O=c1c2ccccc2c(O)nn1-c1ccccc1Cl` [Compound 22], the response vs control in vivo at 20 mg/kg/day under setting [1] was 72 ± 5%, the response vs control in vivo at 20 mg/kg/day under setting [2] was 67 ± 3% and the response vs control in vivo at 20 mg/kg/day under setting [3] amounted to 68 ± 4%.

For `O=c1[nH]n(-c2ccc(Cl)cc2)c(=O)c2ccccc12` [Compound 24, 2-(4'-chlorophenyl)-2,3-dihydrophthalazine-1,4-dione], the response vs control in vivo at 20 mg/kg/day under setting [1] stood at 60 ± 3%, the response vs control in vivo at 20 mg/kg/day under setting [2] turned out to be 54 ± 4% and the response vs control in vivo at 20 mg/kg/day under setting [3] is 59 ± 5%.

As to `Cc1cccc(-n2nc(O)c3ccccc3c2=O)c1` [Compound 26], the response vs control in vivo at 20 mg/kg/day amounted to 87 ± 6% under setting [1], 74 ± 4% under setting [2] and 65 ± 3% under setting [3].

On to `CCCCCOc1nn(CCCCC)c(=O)c2ccccc12` [Compound 11], for which the response vs control in vivo at 20 mg/kg/day turned out to be 86 ± 6% under setting [1], 63 ± 4% under setting [2] and 59 ± 3% under setting [3].

As to `O=c1[nH][nH]c(=O)c2c(Cl)cccc12` [Compound 12, 5-Chloro-2,3-Dihydrophthalazine-1,4-Dione], the response vs control in vivo at 20 mg/kg/day is, setting by setting: under setting [1], 72 ± 5%; under setting [2], 69 ± 4%; under setting [3], 86 ± 5%.

Turning to `O=c1[nH]nc(O)c2cc(Cl)ccc12` [Compound 13], the response vs control in vivo at 20 mg/kg/day under setting [1] came to 72 ± 4%, the response vs control in vivo at 20 mg/kg/day under setting [2] came out at 64 ± 5% and the response vs control in vivo at 20 mg/kg/day under setting [3] was 65 ± 4%.

On to `COc1ccc2c(=O)[nH]nc(O)c2c1` [Compound 17], for which the response vs control in vivo at 20 mg/kg/day runs as follows: under setting [1], 77 ± 5%; under setting [2], 76 ± 4%; under setting [3], 69 ± 3%.

For `Cc1ccccc1-n1nc(O)c2ccccc2c1=O` [Compound 25], the response vs control in vivo at 20 mg/kg/day reads like this: under setting [1], 82 ± 7%; under setting [2], 66 ± 5%; under setting [3], 76 ± 6%.

As for `CC(=O)CCn1[nH]c(=O)c2ccccc2c1=O` [Compound 20, 2-(3'-Oxobutyl)-2,3-Dihydrophthalazine-1,4-Dione], the response vs control in vivo at 20 mg/kg/day is, setting by setting: under setting [1], 72 ± 6%; under setting [2], 59 ± 3%; under setting [3], 70 ± 7%.

In the case of `CCCCn1[nH]c(=O)c2ccccc2c1=O` [Compound 8, 2-n-butyl-2,3-dihydrophthalazine-1,4-dione], the response vs control in vivo at 20 mg/kg/day reads like this: under setting [1], 59 ± 2%; under setting [2], 58 ± 3%; under setting [3], 73 ± 4%.
